# Test results taken from patent US20090068687A1, “Screening platform for discovery of immunomodulatory activities in traditional medicine” (The Hong Kong Polytechnic University, priority 2004, published 2009).
# Key:
# Assay type in all cases: cell-based, rat
# TNF-α [1] = experiment: Western blotting of TNF-α secretion in culture medium of Rg1-stimulated splenocytes; conditions: 5 μg/ml Rg1, culture medium
# Experimental: (§1) Rats were placed under deep ether anesthesia and exsanguinated via the abdominal aorta. Spleen was removed by aseptic techniques before washed twice in 10 mL of RPMI-1640 (Gibco, U.S.A.) medium containing 1000 U/mL penicillin-streptomycin (PS) (Gibco, U.S.A.). Spleens were then cut into small pieces before being sucked up and down with a plunger in a plastic syringe. Single cell suspension was prepared and placed into the same medium containing 1000 U/mL PS, and 5% acid citric dextrose. Splenocytes were then isolated by gradient centrifugation by layering the single cell suspension onto Ficoll-Paque Plus gradient (Amersham Bioscience, H.K. Ltd.) and spun at 400 g for 35 minutes at room temperature. The splenocytes-containing fraction was collected. […]
# (§2) Supernatants of splenocytes cell culture with and without Rg1 incubation were harvested at different time points and used for the detection of TNF-α and IFN-γ. […] The protein content of the supernatant/lysate was determined by the Bradford method (Bio-Rad Laboratory, U.S.A.). For each analysis, 350 μg of protein was analyzed by a 12.5% reducing SDS-PAGE gel ran at a constant voltage (150V) for 1 hour. […] Positive binding was detected using the SuperSignal West Pico Chemiluminescent Kit (Pierce, U.S.A.) and the exposed X-ray films (Kodak) were scanned with a Molecular Dynamics Densitometer (Bio-Rad Laboratories, U.S.A.).
# IFN-γ [2] = experiment: Western blotting of IFN-γ secretion in culture medium of Rg1-stimulated splenocytes; conditions: 5 μg/ml Rg1, culture medium, 24 hour
# Experimental: as §1, §2
# iNOS = experiment: Western blotting of iNOS expression in splenocyte lysate after Rg1 stimulation; conditions: 5 μg/ml Rg1, splenocyte lysate
# Experimental: as §1, §2
# TNF-α [3] = experiment: ELISA of TNF-α secretion from splenocytes with and without Rg1
# Experimental: as §1, with “collected. Erythrocytes were lyzed by adding four volumes of ice-cold ammonium chloride solution (pH 7.4) at room temperature for 5 minutes and splenocytes were washed twice in plain medium.” for “collected.”
# (§3) IFN-γ as well as TNF-α ELISA assays were performed using the OptiEIATM rat IFN-γ and TNF-α kits (Pharmigen, U.S.A.). […] After the addition of avidin-HRP conjugate, color was developed by the addition of 2,2-Azin-bis-3-thylbenzthiazoline-6-sulfonic acid and the color change was monitored at an absorbance of 405 nm with a Microplate Reader (Bio-Rad Laboratories, U.S.A.) The amount of INF-γ and TNF-α were calculated by comparing with the standard.
# IFN-γ [4] = experiment: ELISA of IFN-γ secretion from splenocytes with and without Rg1
# Experimental: as §1, with “collected. Erythrocytes were lyzed by adding four volumes of ice-cold ammonium chloride solution (pH 7.4) at room temperature for 5 minutes and splenocytes were washed twice in plain medium.” for “collected.”
# as §3
# splenocytes = experiment: 2-DE (Two-in-one gel) / MALDI-TOF MS analysis of differential protein expression in splenocyte lysates
# Experimental: Rats were placed under deep ether anesthesia and exsanguinated via the abdominal aorta. Spleen was removed by aseptic techniques before washed twice in 10 mL of RPMI-1640 (Gibco, U.S.A.) medium containing 1000 U/mL penicillin-streptomycin (PS) (Gibco, U.S.A.). Spleens were then cut into small pieces before being sucked up and down with a plunger in a plastic syringe. Single cell suspension was prepared and placed into the same medium containing 1000 U/mL PS, and 5% acid citric dextrose. Splenocytes were then isolated by gradient centrifugation by layering the single cell suspension onto Ficoll-Paque Plus gradient (Amersham Bioscience, H.K. Ltd.) and spun at 400 g for 35 minutes at room temperature. The splenocytes-containing fraction was collected. Erythrocytes were lyzed by adding four volumes of ice-cold ammonium chloride solution (pH 7.4) at room temperature for 5 minutes and splenocytes were washed twice in plain medium. Lymphocytes were stained with Wright-Giema stain before examination under light microscope. Cell viability and number were examined after trypan blue staining under the light microscope. Splenocytes (1×10^6) were cultured in complete RPMI-1640 medium containing 1000 U/mL PS, supplemented with 2 g/L sodium carbonate. Cells were re-suspended in the same medium with 10% FCS (Gibco, U.S.A.) and subjected to various treatments after 24 hours incubation.
# Rg1 (dosage of 5 μg/mL) was added to splenocytes in PBS buffer in 6-well flat-bottomed plates (Nunc Maxisorp, U.S.A.) in a 5% CO2 incubator at 37° C. Samples of conditioned media from the incubation mixture were harvested at varying time points (from 12-72 hours). These samples were kept at −80° C. until use. No sample was kept for more than 2 months. Besides Western Blotting, global protein expression in samples of Rg1 treated splenocytes (at 12 hours and 24 hours intervals) were also performed using 2-DE analysis. Cells incubated with PBS for 24 hours were used as control.
# Splenocytes on culture dishes were rinsed once with RPMI-1640 after incubation with or without Rg1. Subsequently, […] trypsin containing 0.2 g/L EDTA was added and allowed to incubate for 3 min. Cells were then collected by centrifugation at 1,000 g for 5 minutes and washed with PBS (pH 7.2) twice. Splenocytes were then lysed with a minimal amount of lysis buffer (usually 200 μl) containing 4% Triton X-100, 9 M urea, and 1 mM PMSF for 10 minutes on ice. The supernatant was collected by centrifugation at 3,000 g for 10 minutes and protein contents were measured by a modified Bradford method using a protein assay kit by Bio-Rad Laboratories, U.S.A. Cell lysates from different animals with the same treatment were pooled together at a protein ratio of 1:1 and was used for 2-DE analysis. 120 μg of splenocytes lysate [in a buffer containing 9M Urea, 2% w/v Triton X-100, 0.5% w/v DDT (Sigma, U.S.A.), 0.4% v/v IPG buffer 4-7 (Amersham Pharmacia Biotech, Uppsala, Sweden) and trace amount of bromophenol blue to a final volume of 300 μl] was used for in-gel sample rehydration.
# Samples were applied onto IPG strips pH 4-7 (3×170 mm, Bio-Rad Laboratories, U.S.A.). Rehydration and subsequent isoelectric focusing was performed using either a Protean IEF Cell (Bio-Rad Laboratories, U.S.A.) or an IPGphor (Amersham Biosciences, U.S.A.). Rehydration was performed at room temperature for 16 hour at 50 V in the IPG strip holder covered with low viscosity paraffin oil. Isoelectric focusing was then performed using 500 V (1 hour), 1000 V (1 hour), 4000 V (2 hour) and 8000 V (2 hour) sequentially. Strips were then equilibrated in […] Tris-HCl equilibration buffer, pH 6.8, containing 1% (w/v) DTT (Sigma, U.S.A.), 9M urea, 30% v/v glycerol, 2% w/v SDS and a trace amount of bromophenol blue for 10 minutes. […]
# [5] = 5 μg/mL Rg1, ELISA time course 12-72 hours
# [6] = 5 μg/mL Rg1, ELISA, versus splenocytes without Rg1
# [7] = Rg1 24 hours versus PBS control
# [8] = Rg1 treated versus normal sample, Two-in-one gels
structure (smiles),measurement,setting,value
CC(C)=CCC[C@](C)(O[C@@H]1O[C@H](CO)[C@@H](O)[C@H](O)[C@H]1O)[C@H]1CC[C@]2(C)[C@@H]1[C@H](O)C[C@@H]1[C@@]3(C)CC[C@H](O)C(C)(C)[C@@H]3[C@@H](O[C@@H]3O[C@H](CO)[C@@H](O)[C@H](O)[C@H]3O)C[C@]12C [Rg1],TNF-α detection by Western blotting,TNF-α [1]; 24 hour,detected
same,TNF-α detection by Western blotting,TNF-α [1]; 48 hour,detected
same,IFN-γ detection by Western blotting,IFN-γ [2],detected
same,iNOS detection by Western blotting,iNOS; 12 hour,detected
same,iNOS detection by Western blotting,iNOS; 24 hour,detected
same,incubation time at which TNF-α level reached a maximum,TNF-α [3]; [5],24 h
same,increase in quantity of TNF-α after Rg1 induction,TNF-α [3]; [6],more than 1000 fold
same,incubation time at which IFN-γ level reached a maximum,IFN-γ [4]; [5],24 h
same,increase in quantity of IFN-γ after Rg1 induction,IFN-γ [4]; [6],more than 1000 fold
same,number of protein spots detected on the gel half run with the Rg1 treated sample,"splenocytes; 24 hours incubation with Rg1, about 102 spots in normal sample",122
same,Regulation of Alpha-mannosidase II (spot 6),splenocytes; [7],Up-
same,Regulation of Cytochrome C oxidase polypeptide IV precursor (spot 2),splenocytes; [7],Up-
same,Regulation of DNA polymerase beta (spot 3),splenocytes; [7],Up-
same,Regulation of Guanine nucleotide-binding protein G (spot 4),splenocytes; [7],Up-
same,Regulation of Homeotic protein LH-2 (spot 1),splenocytes; [7],Up-
same,Regulation of T-cell surface glycoprotein CD5 precursor (spot 5),splenocytes; [7],Up-
same,number of protein spots down-regulated,splenocytes; [8],38
same,number of proteins up-regulated,splenocytes; [8],87
same,number of spots without significant apparent changes,splenocytes; [8],38
